From patent publication US20230348453A1, “HALOGENATED-HETEROARYL AND OTHER HETEROCYCLIC KINASE INHIBITORS, AND USES THEREOF” (iOmx Therapeutics AG, priority 2020, published 2023)
pEC50, pIC50: −log10 of the molar value. Like-named read-outs stand apart in the source and are kept apart here.

Experiments:
SRC (GST-HIS-tag) = SRC (GST-HIS-tag) (Homo sapiens (Human), UniProt P12931); format: biochemical
SIK2 [1] = molecular target: T1, SIK2 (Homo sapiens (Human), UniProt Q9H0K1); details: read-out: SIK2 IC50
ABL1 wt = ABL1 wt (Homo sapiens (Human), UniProt P00519); format: biochemical
SIK3 [2] = molecular target: T2, SIK3 (Homo sapiens (Human), UniProt Q9Y2K2); details: for SIK3 IC50 (nM), relative to C7: fold of the value of compound C7 (C7 = 1×)
SIK2 [3] = molecular target: T1, SIK2; experiment: SIK2 kinase inhibition (IC50); details: read-out: Kinase: IC50 (nM) SIK2
SIK3 [4] = molecular target: T2, SIK3; experiment: SIK3 kinase inhibition (IC50)
PANC1 cells = experiment: TNF-sensitised cell viability assay (CellTiter-Glo); details: Homo sapiens, PANC-1, read-out: PANC IC50 (at 100 ng/ml rHuNF)
HCT116 cells = experiment: as above; details: Homo sapiens, HCT-116, read-out: HCT116 IC50 (at 10 ng/ml rHuTNF)
[5] = tested on: MC38 murine tumour cell line; experiment: as above; details: Mus musculus; for pIC50: MC-38, read-out: MC38 IC50 (at 100 ng/mL rMuTNF); for pEC50: MC-38, read-out: mean EC50 of sensitising MC38 tumour cells to TNF-mediated killing
[6] = Murine plasma protein binding; details: for Murine plasma protein binding, Percentage unbound (%): Table 5.1A; for recovery at 4 h: mouse, plasma
MV4-11 cell line = experiment: Growth inhibition (GI50) of AML cell lines; format: cell-based; details: Homo sapiens, MV4-11; pMEF2C-positive; read-out: GI50 against MV4-11 cell line
in vitro [7] = details: mouse, microsomes
MDR1 (P-gp) = MDR1 (P-gp) (Homo sapiens (Human), UniProt P08183); experiment: MDR1-MDCK effective efflux assay; details: dog; for Papp: MDCK-MDR1; for efflux ratio: Table 5.1B
[8] = molecular target: MDR1 pump (P-gp), MDCK-MDR1 cells (Homo sapiens (Human), UniProt P08183); experiment: MDR1-MDCK effective efflux assay; details: Table 5.1B
[9] = Human plasma-protein binding; details: for Human plasma-protein binding, Percentage unbound (%): Table 5.1A; for recovery at 4 h: human, plasma
[10] = Screening PK in mice after 30 mg/kg po; details: for Cmax at 2 h / concentration at 6 h: plasma, po, 30 mg/kg; for AUC0-last (nM*h), relative to C7 / C max (ng/ml), relative to C7 / MRT0-last (h), relative to C7 / t1/2 (h), relative to C7: total plasma concentration at 30 mg/kg p.o dose, fold of C7 (C7 = 1×)
[11] = MDCK wild type permeability/efflux; details: dog
[12] = Mouse hepatocyte stability; format: in vitro ADME; details: hepatocytes; for microsomal CLint: read-out: Mouse hepatocyte stability, Intrinsic clearance
CSF1R = CSF1R (Homo sapiens (Human), UniProt P07333); format: biochemical; details: Kinase Profiler
[13] = female, C57BL/6, mouse, in vivo, 7 days
[14] = tested on: MC38 colorectal carcinoma tumours; experiment: MC38 syngeneic mouse tumour model (Example 8.1); details: for Body weight increase (%) / Non-treatment related death / Tumour growth inhibition (%): MC38, BID po
in vitro [15] = details: human, microsomes
[16] = tested on: NFKB activity in PANC-1 cells; experiment: TNF-induced NFKB activity (NFKB-dependent luciferase reporter); details: 10 ng/ml rHuTNF, PANC-1 reporter cells
[17] = tested on: NFKB activity in MC38 cells; experiment: as above; details: 10 ng/ml rMuTNF
KASUMI-1 cell line = experiment: Growth inhibition (GI50) of AML cell lines; format: cell-based; details: Homo sapiens, Kasumi 1; pMEF2C-positive; read-out: GI50 against KASUMI-1 cell line
[18] = tested on: SIK3 WT and KO MC38 clones; experiment: TNF-mediated killing of SIK3 wildtype vs SIK3 knockout MC38 clones (CTG); format: cell-based, mouse; details: sub-optimal TNF (<10 ng/ml), 72 h
Procedure: The assay was performed as follows: MC38 SIK3 KO clones were generated using CRISPR. Cells were transfected with RNP complexes (Cas9+gRNA) containing gRNAS targeting SIK3 or non-targeting sequences (control). […] Subsequently, single cell clones were generated by limiting dilution. CRISPR-derived mutations in single clones were detected by next-generation sequencing and analysed using CRISPResso. Knockout and wildtype clones were selected and plated overnight. […] Cells treated with different concentrations of inhibitor but without TNF served as no TNF control. Cell viability was measured by CTG assay.

[19] = Human hepatocyte stability; format: in vitro ADME; details: for half-life / microsomal CLint: human, hepatocytes; for microsomal CLint: read-out: Human hepatocyte stability, Intrinsic clearance
HCK = HCK (Homo sapiens (Human), UniProt P08631); format: biochemical; details: Kinase Profiler
[20] = Metabolite profile in hepatocytes / in vivo
Source text: Metabolites are identified using high-resolution mass spectrometry.

[21] = tested on: HDAC4 phosphorylation in PANC-1 cells; experiment: HDAC4 phosphorylation (Meso Scale Discovery assay); details: 10 ng/mL rHuTNF, 3 h
in vivo = details: male, CD1, mouse, po, 30 mg/kg
[22] = in vivo, po, 30 mg/kg; for % AUCextrap, Free / % AUCextrap, Total / AUCinf (nM*h), Free / AUClast (nM*h), Free: male, CD1, mouse; for Rsq, Free / Rsq, Total: mouse
[23] = MDCK-MDR1, MDCK-MDR1 cells, Mean Efflux Ratio (MDR1)
[24] = MDCK-MDR1, P-gP driven efflux ratio (MDR1/wt)
[25] = mouse, Free plasma concentration after 6 h (nM), mice, 30 mg/kg po, 6 h
[26] = mouse, Plasma concentration after 6 h (nM), mice, 30 mg/kg po, 6 h
[27] = read-out: Human hepatocyte stability, Half-life

CSF1R, sequence (P07333 20-972 limits assumed): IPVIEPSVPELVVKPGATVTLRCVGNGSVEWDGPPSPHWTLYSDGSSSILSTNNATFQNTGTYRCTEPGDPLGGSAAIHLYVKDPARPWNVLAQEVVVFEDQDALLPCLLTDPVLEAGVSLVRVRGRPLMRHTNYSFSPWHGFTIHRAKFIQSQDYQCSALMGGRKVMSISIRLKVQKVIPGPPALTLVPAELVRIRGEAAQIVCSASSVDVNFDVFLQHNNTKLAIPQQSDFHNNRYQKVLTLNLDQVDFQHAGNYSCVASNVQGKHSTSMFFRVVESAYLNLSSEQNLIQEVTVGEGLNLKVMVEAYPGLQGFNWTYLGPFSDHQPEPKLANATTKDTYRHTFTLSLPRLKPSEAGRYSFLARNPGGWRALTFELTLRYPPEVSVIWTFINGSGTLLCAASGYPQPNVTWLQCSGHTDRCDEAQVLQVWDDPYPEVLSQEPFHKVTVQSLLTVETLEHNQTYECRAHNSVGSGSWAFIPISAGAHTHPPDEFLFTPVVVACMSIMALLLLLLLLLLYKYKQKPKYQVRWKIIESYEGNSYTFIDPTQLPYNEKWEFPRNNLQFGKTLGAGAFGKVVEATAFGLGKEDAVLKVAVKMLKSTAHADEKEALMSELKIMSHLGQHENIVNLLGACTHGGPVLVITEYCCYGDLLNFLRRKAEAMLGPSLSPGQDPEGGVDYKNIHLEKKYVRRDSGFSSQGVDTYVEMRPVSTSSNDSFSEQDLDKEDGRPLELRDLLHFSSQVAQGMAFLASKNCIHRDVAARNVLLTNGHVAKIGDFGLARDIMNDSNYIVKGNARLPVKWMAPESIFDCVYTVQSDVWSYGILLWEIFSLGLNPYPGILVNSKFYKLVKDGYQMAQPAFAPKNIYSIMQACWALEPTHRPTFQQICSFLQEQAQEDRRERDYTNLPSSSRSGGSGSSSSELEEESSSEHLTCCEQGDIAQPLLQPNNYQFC
ABL1 wt, sequence (P00519 118-535 limits assumed): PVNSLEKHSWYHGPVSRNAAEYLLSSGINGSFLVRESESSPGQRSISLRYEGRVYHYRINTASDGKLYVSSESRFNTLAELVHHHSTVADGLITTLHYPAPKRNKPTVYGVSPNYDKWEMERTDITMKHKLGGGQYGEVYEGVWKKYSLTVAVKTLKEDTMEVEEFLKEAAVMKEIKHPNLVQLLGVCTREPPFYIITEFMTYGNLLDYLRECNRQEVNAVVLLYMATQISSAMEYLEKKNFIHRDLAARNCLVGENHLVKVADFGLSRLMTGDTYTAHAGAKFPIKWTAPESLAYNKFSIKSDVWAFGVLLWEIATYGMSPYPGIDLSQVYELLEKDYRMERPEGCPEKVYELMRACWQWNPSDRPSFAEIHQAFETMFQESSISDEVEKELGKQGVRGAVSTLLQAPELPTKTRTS

Cc1nc(Nc2ncc(C(=O)Nc3c(Cl)ccnc3C)s2)cc(N2CCN(C)CC2)n1 [Compound C10]
pIC50 (SRC (GST-HIS-tag)): > 8.82 | pIC50 (SIK2 [1]): 6.86 | pIC50 (ABL1 wt): 8.37 | pIC50 (SIK3 [2]; read-out: SIK3 IC50): 6.31

Cc1nc(Nc2ncc(C(=O)Nc3c(C(F)F)csc3Cl)s2)cc(N2CCN(C)C(C)C2)n1 (racemic) [Compound E16, N-(2-chloro-4-(difluoromethyl)thiophen-3-yl)-2-((2-methyl-6-(3,4-dimethylpiperazin-1-yl)pyrimidin-4-yl)amino)thiazole-5-carboxamide]
IC50 (SIK2 [3]): < 20 nM | pIC50 (SIK3 [4]): 7.30 to 7.70 | pIC50 (PANC1 cells): > 7.00 | pIC50 (HCT116 cells): > 7.00 | pIC50 [5]: > 7.00

Cc1nc(Nc2ncc(C(=O)Nc3c(C(F)F)csc3Cl)s2)cc(N2CCN(CCO)CC2)n1 [Compound E4, N-(2-chloro-4-(difluoromethyl)thiophen-3-yl)-2-((6-(4-(2-hydroxyethyl)piperazin-1-yl)-2-methylpyrimidin-4-yl)amino)thiazole-5-carboxamide]
Murine plasma protein binding, Percentage unbound (%) [6]: 2% | recovery at 4 h [6]: 80% | GI50 (MV4-11 cell line): < 750 nM | half-life (in vitro [7]): 0.333 h | microsomal CLint (in vitro [7]): 70 µL/min/mg | Papp (MDR1 (P-gp)): 3 ×10⁻⁶ cm/s | efflux ratio (MDR1 (P-gp); [23]): 40 to 50 | efflux ratio (MDR1 (P-gp); [24]): 11 | MDCK-MDR1 cells, Mean Efflux Ratio (MDR1) [8]: 43 | Human plasma-protein binding, Percentage unbound (%) [9]: <1% | recovery at 4 h [9]: 77% | fold increase of concentration at 6 h compared to dasatinib ([10]; mice, 30 mg/kg po, 6 h): 3 fold | fold improvement of free serum concentration over C7 ([10]; mouse, in vivo): 5 fold | fold improvement of total serum concentration over C7 ([10]; mouse, in vivo): 9.6 fold | Cmax at 2 h ([10]; mouse): 1210 ng/mL | concentration at 6 h [10, 25]: 17.9 nM | concentration at 6 h [10, 26]: 662 nM | AUC0-last (nM*h), relative to C7 [10]: 4.7× | C max (ng/ml), relative to C7 [10]: 2.6× | MRT0-last (h), relative to C7 [10]: 2× | t1/2 (h), relative to C7 [10]: 3.2× | Papp [11]: 5 ×10⁻⁶ cm/s | efflux ratio [11]: 4.1 | half-life [12]: 1.3 h | microsomal CLint [12]: 18 µL/min/mg | IC50 (SIK2 [3]): < 20 nM | IC50 (SIK3 [4]; read-out: Kinase: IC50 (nM) SIK3): < 20 nM | CSF1R residual activity (CSF1R): less than 1% | DLT@BID dosing [13]: 60 to 80 mg/kg | DLT@QD dosing [13]: n.d. @80 mg/kg | HRD in vivo @BID [13]: 33 mg/kg | HRD in vivo @QD [13]: 80 mg/kg | Body weight increase (%) ([14]; 40 mg/Kg): 12.0% | Non-treatment related death ([14]; 40 mg/Kg): 3/16 | Tumour growth inhibition (%) ([14]; 40 mg/Kg): 64% | half-life (in vitro [15]): 0.367 h | microsomal CLint (in vitro [15]): 65 µL/min/mg | Inhibition of NFKB activity (PANC-1) [16]: ++ | Inhibition of NFKB activity (MC38) [17]: ++ | GI50 (KASUMI-1 cell line): < 7.5 nM | TNF-mediated killing in SIK3 WT vs KO MC38 clones [18]: induced TNF-mediated killing only in SIK3 WT clones | pIC50 (HCT116 cells): > 7.00 | half-life [19, 27]: 1.07 h | microsomal CLint [19]: 22 µL/min/mg | half-life ([19]; read-out: half-life in the presence of human hepatocytes (converted)): ~1 h | pIC50 [5]: > 7.00 | pEC50 [5]: > 7.00 | HCK residual activity (HCK): less than 1% | quinone-imine reactive metabolite [20]: not observed | SIK3 IC50 (nM), relative to C7 (SIK3 [2]): 0.6× | Inhibition of HDAC4 phosphorylation [21]: ++ | AUC(0-inf) (in vivo): 5.5 µM·h | AUC(0-t) (in vivo): 5.48 µM·h | Cmax (in vivo): 1240 ng/mL | MRT last (in vivo): 5.88 h | Tmax (in vivo): 2 h | half-life (in vivo): 4.49 h | % AUCextrap, Free [22]: 0.31% | % AUCextrap, Total [22]: 0.31% | AUCinf (nM*h), Free [22]: 148.39 nM·h | AUClast (nM*h), Free [22]: 147.93 nM·h | Rsq, Free [22]: 0.90 | Rsq, Total [22]: 0.90

Cc1nc(Nc2ncc(C(=O)Nc3c(CF)csc3Cl)s2)cc(N2CCN(C)C(C)C2)n1 (racemic) [Compound E10, N-(2-chloro-4-(fluoromethyl)thiophen-3-yl)-2-((6-(3,4-dimethylpiperazin-1-yl)-2-methylpyrimidin-4-yl)amino)thiazole-5-carboxamide]
Murine plasma protein binding, Percentage unbound (%) [6]: 1% | recovery at 4 h [6]: 101% | half-life (in vitro [7]): 0.233 h | microsomal CLint (in vitro [7]): 99 µL/min/mg | Papp (MDR1 (P-gp)): 4 ×10⁻⁶ cm/s | efflux ratio (MDR1 (P-gp); [23]): 20 to 30 | efflux ratio (MDR1 (P-gp); [24]): 19 | MDCK-MDR1 cells, Mean Efflux Ratio (MDR1) [8]: 31 | Human plasma-protein binding, Percentage unbound (%) [9]: 1% | recovery at 4 h [9]: 74% | Cmax at 2 h ([10]; mouse): 374 ng/mL | concentration at 6 h [10, 25]: 3.3 nM | concentration at 6 h [10, 26]: 157 nM | AUC0-last (nM*h), relative to C7 [10]: 2× | C max (ng/ml), relative to C7 [10]: 1.7× | MRT0-last (h), relative to C7 [10]: 2.8× | t1/2 (h), relative to C7 [10]: 14.5× | Papp [11]: 10 ×10⁻⁶ cm/s | efflux ratio [11]: 1.6 | half-life [12]: 1.3 h | microsomal CLint [12]: 18 µL/min/mg | IC50 (SIK2 [3]): < 20 nM | pIC50 (SIK3 [4]): 7.30 to 7.70 | CSF1R residual activity (CSF1R): less than 1% | DLT@BID dosing [13]: n.d. @30 mg/kg | DLT@QD dosing [13]: n.d. @30 mg/kg | HRD in vivo @BID [13]: 30 mg/kg | HRD in vivo @QD [13]: 30 mg/kg | TGI ([14]; MC38, dose not repeated): 46% | Body weight increase (%) ([14]; 30 mg/Kg): 19.8% | Non-treatment related death ([14]; 30 mg/Kg): 0/16 | Tumour growth inhibition (%) ([14]; 30 mg/Kg): 46% | half-life (in vitro [15]): 0.2 h | microsomal CLint (in vitro [15]): 120 µL/min/mg | Inhibition of NFKB activity (PANC-1) [16]: ++ | Inhibition of NFKB activity (MC38) [17]: ++ | TNF-mediated killing in SIK3 WT vs KO MC38 clones [18]: induced TNF-mediated killing only in SIK3 WT clones | pIC50 (HCT116 cells): > 7.00 | Human hepatocyte stability, Half-life [19]: 0.35 h | half-life [19, 27]: 0.35 to 0.5 h | microsomal CLint [19]: 67 µL/min/mg | pIC50 [5]: > 7.00 | pEC50 [5]: > 7.00 | HCK residual activity (HCK): less than 1% | quinone-imine reactive metabolite [20]: not observed | SIK3 IC50 (nM), relative to C7 (SIK3 [2]): 0.7× | Inhibition of HDAC4 phosphorylation [21]: ++ | AUC(0-inf) (in vivo): 6.17 µM·h | AUC(0-t) (in vivo): 5.92 µM·h | Cmax (in vivo): 2040 ng/mL | MRT last (in vivo): 4.1 h | Tmax (in vivo): 0.25 h | half-life (in vivo): 4.35 h | % AUCextrap, Free [22]: 4.05% | % AUCextrap, Total [22]: 4.05% | AUCinf (nM*h), Free [22]: 128.06 nM·h | AUClast (nM*h), Free [22]: 122.87 nM·h | Rsq, Free [22]: 0.81 | Rsq, Total [22]: 0.81
